Calls of active or inactive are those of the source. Cut-off read from the data, not from the text of the source: actives have a measured IC50 and inactives only a lower limit.
Key:
Assay type in all cases: functional
Caspase-3 = biological target: T1, Caspase-3 (Homo sapiens, UniProt P42574);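 note: Dose-response selectivity test against caspase-3 for candidate inhibitors of sentrin-specific proteases (SENPs)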
T1 sequence (P42574 whole entry): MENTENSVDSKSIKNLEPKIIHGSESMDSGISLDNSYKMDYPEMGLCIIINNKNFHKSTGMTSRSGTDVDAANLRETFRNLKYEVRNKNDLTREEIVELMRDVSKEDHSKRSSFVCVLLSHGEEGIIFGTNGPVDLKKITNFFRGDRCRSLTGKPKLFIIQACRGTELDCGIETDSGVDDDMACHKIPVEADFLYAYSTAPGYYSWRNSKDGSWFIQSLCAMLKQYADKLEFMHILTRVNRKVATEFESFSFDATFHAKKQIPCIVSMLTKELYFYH

[1] = biological target: T2, Sentrin-specific protease 6 (Homo sapiens, UniProt Q9GZR1);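 note: Luminescence-based dose-response confirmatory assay of SENP6 inhibition, following up an ultra-high-throughput screen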
T2 sequence (Q9GZR1 whole entry): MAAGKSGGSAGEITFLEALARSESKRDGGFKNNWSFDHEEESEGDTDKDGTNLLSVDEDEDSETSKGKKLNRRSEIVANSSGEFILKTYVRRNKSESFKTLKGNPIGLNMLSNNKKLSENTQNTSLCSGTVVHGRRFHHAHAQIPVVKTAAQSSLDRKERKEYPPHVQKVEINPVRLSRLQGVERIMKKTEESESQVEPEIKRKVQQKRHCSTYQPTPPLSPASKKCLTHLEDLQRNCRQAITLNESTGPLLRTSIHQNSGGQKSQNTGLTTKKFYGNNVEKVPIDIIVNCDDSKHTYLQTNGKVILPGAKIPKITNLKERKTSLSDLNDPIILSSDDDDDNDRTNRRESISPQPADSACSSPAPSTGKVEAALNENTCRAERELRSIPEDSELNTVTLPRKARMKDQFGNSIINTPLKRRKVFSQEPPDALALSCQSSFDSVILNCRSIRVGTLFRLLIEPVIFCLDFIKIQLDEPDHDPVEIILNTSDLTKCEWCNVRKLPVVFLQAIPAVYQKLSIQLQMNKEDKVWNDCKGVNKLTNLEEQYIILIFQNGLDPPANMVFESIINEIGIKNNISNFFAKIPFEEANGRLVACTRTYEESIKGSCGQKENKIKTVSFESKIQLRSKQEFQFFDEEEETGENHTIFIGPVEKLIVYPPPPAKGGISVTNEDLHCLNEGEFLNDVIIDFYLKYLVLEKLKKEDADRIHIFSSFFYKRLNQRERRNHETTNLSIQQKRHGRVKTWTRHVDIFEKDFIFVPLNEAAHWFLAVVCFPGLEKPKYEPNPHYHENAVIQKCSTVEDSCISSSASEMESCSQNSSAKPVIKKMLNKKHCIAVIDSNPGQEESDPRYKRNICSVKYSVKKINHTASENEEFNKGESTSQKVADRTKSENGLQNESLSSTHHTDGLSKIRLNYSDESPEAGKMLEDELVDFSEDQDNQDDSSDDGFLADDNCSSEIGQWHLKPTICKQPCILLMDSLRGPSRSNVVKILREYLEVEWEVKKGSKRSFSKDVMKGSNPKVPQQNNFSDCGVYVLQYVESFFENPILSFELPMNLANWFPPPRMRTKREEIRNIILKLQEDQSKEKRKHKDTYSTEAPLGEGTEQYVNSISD

[2] = biological target: T3, Sentrin-specific protease 8 (Homo sapiens, UniProt Q96LD8);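 note: luminescence read-out of SENP8 inhibition, dose-response confirmation following an ultra-high-throughput screen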
T3 sequence (Q96LD8 whole entry): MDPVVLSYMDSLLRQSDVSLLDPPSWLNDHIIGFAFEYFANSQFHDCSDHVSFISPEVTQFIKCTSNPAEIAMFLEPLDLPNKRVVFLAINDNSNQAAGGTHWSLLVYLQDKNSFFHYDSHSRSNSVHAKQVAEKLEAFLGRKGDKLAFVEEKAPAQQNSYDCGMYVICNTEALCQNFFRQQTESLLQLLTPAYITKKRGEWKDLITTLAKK

[3] = biological target: T4, Apoptotic protease-activating factor 1 (Homo sapiens, UniProt O14727)
T4 sequence (O14727 whole entry): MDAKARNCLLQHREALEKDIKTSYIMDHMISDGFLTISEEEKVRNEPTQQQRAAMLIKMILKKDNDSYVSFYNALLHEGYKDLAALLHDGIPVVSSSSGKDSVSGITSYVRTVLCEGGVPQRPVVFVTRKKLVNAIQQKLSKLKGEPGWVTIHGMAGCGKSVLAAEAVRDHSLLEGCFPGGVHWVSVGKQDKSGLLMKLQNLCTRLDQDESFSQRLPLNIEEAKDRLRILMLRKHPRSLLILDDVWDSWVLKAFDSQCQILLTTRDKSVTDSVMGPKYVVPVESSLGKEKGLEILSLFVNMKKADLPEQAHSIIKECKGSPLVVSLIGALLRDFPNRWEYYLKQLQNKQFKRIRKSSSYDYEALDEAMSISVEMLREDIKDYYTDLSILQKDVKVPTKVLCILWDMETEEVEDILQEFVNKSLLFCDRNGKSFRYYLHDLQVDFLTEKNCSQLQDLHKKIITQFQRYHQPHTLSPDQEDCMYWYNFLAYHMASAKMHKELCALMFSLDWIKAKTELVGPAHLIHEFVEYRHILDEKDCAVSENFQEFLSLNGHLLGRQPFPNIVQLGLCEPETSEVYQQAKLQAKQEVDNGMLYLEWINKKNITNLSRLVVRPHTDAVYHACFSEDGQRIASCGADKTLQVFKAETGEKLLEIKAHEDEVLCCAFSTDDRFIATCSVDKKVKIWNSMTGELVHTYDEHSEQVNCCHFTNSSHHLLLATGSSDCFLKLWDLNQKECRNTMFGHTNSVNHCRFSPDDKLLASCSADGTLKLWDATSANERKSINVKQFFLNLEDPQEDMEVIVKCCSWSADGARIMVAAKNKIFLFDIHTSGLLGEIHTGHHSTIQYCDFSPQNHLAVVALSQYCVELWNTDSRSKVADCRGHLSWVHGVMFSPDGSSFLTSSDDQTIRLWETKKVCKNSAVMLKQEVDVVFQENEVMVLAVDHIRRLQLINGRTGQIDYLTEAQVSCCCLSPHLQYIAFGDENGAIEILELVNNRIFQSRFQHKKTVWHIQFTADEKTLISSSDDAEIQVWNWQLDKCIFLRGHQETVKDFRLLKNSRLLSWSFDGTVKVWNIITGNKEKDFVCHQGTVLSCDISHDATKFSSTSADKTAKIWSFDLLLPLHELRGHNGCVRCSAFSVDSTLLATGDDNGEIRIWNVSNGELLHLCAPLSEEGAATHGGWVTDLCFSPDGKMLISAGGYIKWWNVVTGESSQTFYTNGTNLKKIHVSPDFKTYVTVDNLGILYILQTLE

Compound: O=C(NC1(O)C(=O)c2ccccc2C1=O)c1ccc(C(F)(F)F)cc1
- IC50 (Caspase-3): 94.5 µM (active)
- IC50 [1]: 2.66 µM (active)
- IC50 [2]: 4.9 µM (active)
- IC50 [3]: 2.97 µM (active)

Compound: O=C(NC1(O)C(=O)c2ccccc2C1=O)c1c(Cl)cccc1Cl
- IC50 (Caspase-3): > 100 µM (inactive)
- IC50 [1]: 3.53 µM (active)
- IC50 [2]: 4.78 µM (active)
- IC50 [3]: 2.7 µM (active)

Compound: O=C(COC(=O)c1ccc([N+](=O)[O-])s1)Nc1ncc(C(F)(F)F)cc1Cl
- IC50 (Caspase-3): 10 µM (active)
- IC50 [1]: 5.68 µM (active)
- IC50 [2]: 4.83 µM (active)

Compound: CCN(c1ccccc1)c1cc2ccccc2c(=O)[nH]1
- IC50 (Caspase-3): 2.69 µM (active)
- IC50 [1]: 2.21 µM (active)
- IC50 [2]: 3.73 µM (active)
- IC50 [3]: 18.7 µM (active)
